Row | Compound | melting point
1 | O=C1NC(=O)c2c1c(-c1ccccc1Cl)cc1c2c(Cl)c(CO)n1CCCO [Example 66, 8-Chloro-4-(2-chlorophenyl)-7-hydroxymethyl-6-(3-hydroxypropyl)-6H-2,6-diaza-as-indacene-1,3-dione] | 218 to 219 °C
2 | COCCCn1c(CO)c(Cl)c2c3c(c(-c4ccccc4Cl)cc21)C(=O)NC3=O [Example 67, 8-Chloro-4-(2-chlorophenyl)-7-hydroxymethyl-6-(3-methoxypropyl)-6H-2,6-diaza-as-indacene-1,3-dione] | 214 to 215 °C
3 | COCCOCCCn1c(C=O)c(Br)c2c3c(c(-c4ccccc4Cl)cc21)C(=O)NC3=O [Example 69, 8-Bromo-4-(2-chlorophenyl)-6-[3-(2-methoxyethoxy)propyl]-1,3-dioxo-1,2,3,6-tetrahydro-2,6-diaza-as-indacene-7-carbaldehyde] | 168 to 169 °C
4 | COCCOCCCn1c(CO)c(Br)c2c3c(c(-c4ccccc4Cl)cc21)C(=O)NC3=O [Example 70] | 149 to 150 °C
5 | Cn1c(C(=O)O)cc2c3c(c(-c4ccccc4Cl)cc21)C(=O)NC3=O [Example 83, 4-(2-Chlorophenyl)-6-methyl-1,3-dioxo-1,2,3,6-tetrahydro-2,6-diaza-as-indacene-7-carboxylic acid] | 301 to 302 °C
6 | Cn1cc(Br)c2c3c(c(I)cc21)C(=O)NC3=O [Example 132, 8-Bromo-4-iodo-6-methyl-6H-2,6-diaza-as-indacene-1,3-dione] | 242 °C (dec.)
7 | CSc1ccccc1-c1cc2c(ccn2C)c2c1C(=O)NC2=O [Example 134 (sulfide), 6-Methyl-4-(2-methylsulfanylphenyl)-6H-2,6-diaza-as-indacene-1,3-dione] | 272 to 274 °C
8 | Cn1ccc2c3c(c(-c4ccccc4[S+](C)[O-])cc21)C(=O)NC3=O (centres unmarked) [Example 134 (sulfoxide), 4-(2-Methanesulfinylphenyl)-6-methyl-6H-2,6-diaza-as-indacene-1,3-dione] | 311 to 315 °C
9 | C[C@@H]1CN(CCCn2cc(Br)c3c4c(c(-c5ccccc5Cl)cc32)C(=O)NC4=O)C[C@H](C)N1 [Example 135, 8-Bromo-4-(2-chlorophenyl)-6-[3-(cis-3,5-dimethylpiperazin-1-yl)propyl]-6H-2,6-diaza-as-indacene-1,3-dione] | 236 to 239 °C
10 | O=C1NC(=O)c2c1c(-c1ccccc1Cl)cc1c2c(Br)cn1CCCN1CCCC1 [Example 137, 8-Bromo-4-(2-chlorophenyl)-6-(3-pyrrolidin-1-ylpropyl)-6H-2,6-diaza-as-indacene-1,3-dione] | 158 to 161 °C
11 | CN1CCN(CCCn2cc(Br)c3c4c(c(-c5ccccc5Cl)cc32)C(=O)NC4=O)CC1 [Example 138, 8-Bromo-4-(2-chlorophenyl)-6-[3-(4-methylpiperazin-1-yl)-propyl]-6H-2,6-diaza-as-indacene-1,3-dione] | 150 to 152 °C
12 | O=C1NC(=O)c2c1c(-c1ccccc1Cl)cc1c2c(Br)cn1CCCN1CCOCC1 [Example 139, 8-Bromo-4-(2-chlorophenyl)-6-(3-morpholin-4-ylpropyl)-6H-2,6-diaza-as-indacene-1,3-dione] | 117 to 120 °C
13 | CN(C)CCCn1cc(Br)c2c3c(c(-c4ccccc4Cl)cc21)C(=O)NC3=O [Example 140, 8-Bromo-4-(2-chlorophenyl)-6-(3-dimethylaminopropyl)-6H-2,6-diaza-as-indacene-1,3-dione] | 160 to 162 °C
14 | CCCN(CCC)CCCn1cc(Br)c2c3c(c(-c4ccccc4Cl)cc21)C(=O)NC3=O [Example 141, 8-Bromo-4-(2-chlorophenyl)-6-(3-dipropylaminopropyl)-6H-2,6-diaza-as-indacene-1,3-dione] | 173 to 175 °C
15 | O=C1NC(=O)c2c1c(-c1ccccc1Cl)cc1c2ccn1CCN1CCCC1 [Example 142, 4-(2-Chlorophenyl)-6-(2-pyrrolidin-1-ylethyl)-6H-2,6-diaza-as-indacene-1,3-dione] | 208 to 209 °C
16 | C=Cc1cn(C)c2cc(-c3ccccc3Cl)c3c(c12)C(=O)NC3=O [Example 145, 4-(2-Chlorophenyl)-6-methyl-8-vinyl-6H-2,6-diaza-as-indacene-1,3-dione] | 200 to 205 °C
17 | Cn1cc(C(O)CO)c2c3c(c(-c4ccccc4Cl)cc21)C(=O)NC3=O (centres unmarked) [Example 146, 4-(2-Chlorophenyl)-8-(1,2-dihydroxyethyl)-6-methyl-6H-2,6-diaza-as-indacene-1,3-dione] | 179 to 183 °C
18 | Cn1cc(CCO)c2c3c(c(-c4ccccc4Cl)cc21)C(=O)NC3=O [Example 147, 4-(2-Chlorophenyl)-8-(2-hydroxyethyl)-6-methyl-6H-2,6-diaza-as-indacene-1,3-dione] | 225 to 229 °C
19 | CCc1cn(C)c2cc(-c3ccccc3Cl)c3c(c12)C(=O)NC3=O [Example 148, 4-(2-Chlorophenyl)-8-ethyl-6-methyl-6H-2,6-diaza-as-indacene-1,3-dione] | 230 to 233 °C
20 | C#Cc1cn(C)c2cc(-c3ccccc3Cl)c3c(c12)C(=O)NC3=O [Example 149, 4-(2-Chlorophenyl)-8-ethynyl-6-methyl-6H-2,6-diaza-as-indacene-1,3-dione] | 125 to 129 °C
21 | COc1ccccc1-c1cc2c(c(C#CCO)cn2C)c2c1C(=O)NC2=O [Example 150, 8-(3-Hydroxyprop-1-ynyl)-4-(2-methoxyphenyl)-6-methyl-6H-2,6-diaza-as-indacene-1,3-dione] | 154 to 157 °C
22 | Cn1cc(C#N)c2c3c(c(-c4ccccc4Cl)cc21)C(=O)NC3=O [Example 151, 4-(2-Chlorophenyl)-6-methyl-1,3-dioxo-1,2,3,6-tetrahydro-2,6-diaza-as-indacene-8-carbonitrile] | 160 to 163 °C
23 | O=C(O)CCn1cc(Br)c2c3c(c(-c4ccccc4Cl)cc21)C(=O)NC3=O [Example 165, 3-[8-Bromo-4-(2-chlorophenyl)-1,3-dioxo-2,3-dihydro-1H-2,6-diaza-as-indacen-6-yl]propionic acid] | 182 to 186 °C
24 | Cn1cc(CN2CCCC2)c2c3c(c(-c4ccccc4Cl)cc21)C(=O)NC3=O [Example 166, 4-(2-Chlorophenyl)-6-methyl-8-pyrrolidin-1-ylmethyl-6H-2,6-diaza-as-indacene-1,3-dione] | 160 to 165 °C (dec.)
25 | CN(C)Cc1cn(C)c2cc(-c3ccccc3Cl)c3c(c12)C(=O)NC3=O [Example 167, 4-(2-Chlorophenyl)-8-dimethylaminomethyl-6-methyl-6H-2,6-diaza-as-indacene-1,3-dione] | 155 to 159 °C
26 | Cn1cc(CO)c2c3c(c(-c4ccccc4Cl)cc21)C(=O)NC3=O [Example 168, 4-(2-chlorophenyl)-8-hydroxymethyl-6-methyl-6H-2,6-diaza-as-indacene-1,3-dione] | 270 to 274 °C

— US20050250836A1, “Inhibitors of checkpoint kinases (Wee1 and Chk1)” (Pfizer Inc, priority 2004, published 2005)
